Paper PMC11823594, “Durlobactam in combination with β-lactams to combat Mycobacterium abscessus” (Antimicrobial Agents and Chemotherapy, 2024)

Biological target: LDT3 (Mycobacterium abscessus, UniProt B1MHQ4)
Test: Steady-state kinetics with nitrocefin (Ki,app)
Format: biochemical
Conditions: in parentheses in Table 3
How it was run: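 Purified enzyme at fixed concentration with nitrocefin at 5 × Km, varied β-lactam/BLI concentrations; A482 followed over 0–30 min. Ki,app taken from Dixon plots (1/ΔA vs inhibitor) and corrected for substrate: observed Ki,app/(1+[NCF]/Km NCF).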

LDT3, sequence (B1MHQ4 entry or part of it): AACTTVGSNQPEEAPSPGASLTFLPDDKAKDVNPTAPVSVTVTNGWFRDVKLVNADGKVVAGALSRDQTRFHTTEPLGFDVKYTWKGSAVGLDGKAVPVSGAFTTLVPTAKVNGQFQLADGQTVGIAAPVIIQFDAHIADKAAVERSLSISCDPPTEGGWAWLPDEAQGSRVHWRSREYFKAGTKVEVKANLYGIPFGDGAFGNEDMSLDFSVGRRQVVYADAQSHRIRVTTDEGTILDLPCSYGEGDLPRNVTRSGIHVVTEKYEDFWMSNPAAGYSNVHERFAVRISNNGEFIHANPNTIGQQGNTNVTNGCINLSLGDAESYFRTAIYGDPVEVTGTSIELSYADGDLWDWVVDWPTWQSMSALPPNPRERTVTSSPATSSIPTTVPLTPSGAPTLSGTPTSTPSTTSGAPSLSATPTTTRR

How did the “Ratio of fCss,avg to Ki,app, LDT3” value turn out when `C[C@@H](O)[C@H]1C(=O)N2C(C(=O)O)=C(S[C@H]3CC[S@@+]([O-])C3)S[C@H]12` [Sulopenem, sulopenem] was run?
Its value is 0.4.
